Assay results from PubChem BioAssay AID256 (DTP/NCI, 2004).
Values joined by “and” are separate entries in the source; they are usually repeats but may differ in a detail not shown here. Identical values can stand only once. Toxic doses and inconclusive results are not listed.

Tested on: CD2F1 mice, L1210 leukemia ip, survival T/C
Assay: NCI In Vivo Anticancer Drug Screen. Data for tumor model L1210 Leukemia (intraperitoneal) in CD2F1 (CDF1) mice
Conditions: higher = longer survival
Description: The antitumor activity of compounds was measured in mice bearing transplantable tumors. Survival or tumor size were measured and the results are expressed as the measurement made in the treated group (T) divided by the measurement made in the vehicle treated control group (C). The tumor model used in this assay is L1210 Leukemia (intraperitoneal) in CD2F1 (CDF1) mice

[1] = endpoint: mean survival time, dose: 100.0 mg/kg/injection, schedule: Q01DX001 (ip), vehicle: saline with Tween-80
[2] = endpoint: mean survival time, dose: 200.0 mg/kg/injection, schedule: Q01DX001 (ip), vehicle: saline with Tween-80
[3] = endpoint: mean survival time, dose: 200.0 mg/kg/injection, schedule: Q04DX002 (ip), vehicle: saline with Tween-80
[4] = endpoint: mean survival time, dose: 100.0 mg/kg/injection, schedule: Q04DX003 (ip), vehicle: saline with Tween-80
[5] = endpoint: mean survival time, dose: 200.0 mg/kg/injection, schedule: Q04DX003 (ip), vehicle: saline with Tween-80
[6] = endpoint: mean survival time, dose: 400.0 mg/kg/injection, schedule: Q04DX003 (ip), vehicle: saline with Tween-80
[7] = endpoint: mean survival time, dose: 100.0 mg/kg/injection, schedule: Q01DX009 (ip), vehicle: saline with Tween-80
[8] = endpoint: mean survival time, dose: 200.0 mg/kg/injection, schedule: Q01DX009 (ip), vehicle: saline with Tween-80
[9] = endpoint: mean survival time, dose: 400.0 mg/kg/injection, schedule: Q01DX009 (ip), vehicle: saline with Tween-80
[10] = endpoint: mean survival time, dose: 75.0 mg/kg/injection, schedule: Q01DX001 (ip), vehicle: saline
[11] = endpoint: mean survival time, dose: 150.0 mg/kg/injection, schedule: Q01DX001 (ip), vehicle: saline
[12] = endpoint: mean survival time, dose: 100.0 mg/kg/injection, schedule: Q04DX002 (ip), vehicle: saline with Tween-80
[13] = endpoint: mean survival time, dose: 400.0 mg/kg/injection, schedule: Q04DX002 (ip), vehicle: saline with Tween-80
[14] = endpoint: mean survival time, dose: 400.0 mg/kg/injection, schedule: Q01DX001 (ip), vehicle: saline with Tween-80

CCN(CC)Cc1cc(Nc2ncnc3[nH]c(C)c(C)c23)ccc1O
T/C (endpoint: mean survival time, dose: 50.0 mg/kg/injection, schedule: Q04DX002 (ip), vehicle: saline with Tween-80): 89 % of control | T/C [1]: 97 % of control | T/C [2]: 100 % of control | T/C [3]: 92 % of control

O=C(c1ccccc1)N(C(=O)c1ccccc1)c1cccc[n+]1[O-]
T/C [4]: 100 % of control | T/C [5]: 97 % of control | T/C [6]: 102 % of control

CNc1nc(N)nc2nonc12
T/C (endpoint: mean survival time, dose: 12.5 mg/kg/injection, schedule: Q01DX005 (ip), vehicle: other): 98 % of control | T/C (endpoint: mean survival time, dose: 25.0 mg/kg/injection, schedule: Q01DX005 (ip), vehicle: other): 98 % of control | T/C (endpoint: mean survival time, dose: 50.0 mg/kg/injection, schedule: Q01DX005 (ip), vehicle: other): 95 % of control | T/C (endpoint: mean survival time, dose: 100.0 mg/kg/injection, schedule: Q01DX005 (ip), vehicle: other): 86 % of control | T/C (endpoint: mean survival time, dose: 200.0 mg/kg/injection, schedule: Q01DX005 (ip), vehicle: other): 89 % of control

Nc1ccc(-c2ccc(N)c([N+](=O)[O-])c2)cc1[N+](=O)[O-]
T/C [7]: 98 % of control | T/C [4]: 86 % of control | T/C [8]: 94 % of control | T/C [5]: 89 % of control | T/C [9]: 95 % of control | T/C [6]: 86 % of control

CSC(=CC(=O)c1ccccc1)SC
T/C [10]: 101 % of control | T/C [11]: 106 % of control

O=NN(CCCl)C(=O)NC1C(O)C(O)C(O)C(O)C1O (stereo unspecified)
T/C (endpoint: mean survival time, dose: 13.0 mg/kg/injection, schedule: Q01DX001 (ip), vehicle: saline): 167 % of control and 220 % of control | T/C (endpoint: mean survival time, dose: 20.0 mg/kg/injection, schedule: Q01DX001 (ip), vehicle: saline): 173 % of control and 227 % of control | T/C (endpoint: mean survival time, dose: 25.0 mg/kg/injection, schedule: Q01DX001 (ip), vehicle: saline): 255 % of control | T/C (endpoint: mean survival time, dose: 30.0 mg/kg/injection, schedule: Q01DX001 (ip), vehicle: saline): 271 % of control and 282 % of control | T/C (endpoint: mean survival time, dose: 44.0 mg/kg/injection, schedule: Q01DX001 (ip), vehicle: saline): 197 % of control

Cc1ccc(S(=O)(=O)O/N=C2/CCSc3ccccc32)cc1
T/C (endpoint: mean survival time, dose: 100.0 mg/kg/injection, schedule: Q01DX001 (ip), vehicle: acetone): 100 % of control | T/C (endpoint: mean survival time, dose: 200.0 mg/kg/injection, schedule: Q01DX001 (ip), vehicle: acetone): 97 % of control | T/C (endpoint: mean survival time, dose: 400.0 mg/kg/injection, schedule: Q01DX001 (ip), vehicle: acetone): 97 % of control

CC(C(=O)O)C1CCC2(C)CCC(=O)C(C)(Cl)C2(O)C1=O (stereo unspecified)
T/C [12]: 96 % of control | T/C [3]: 100 % of control | T/C [13]: 100 % of control

CC(=O)Nc1ccc(C#[N+][S-])cc1
T/C (endpoint: mean survival time, dose: 3.13 mg/kg/injection, schedule: Q01DX001 (ip), vehicle: Klucel (hydroxypropylcellulose) (HPC)): 104 % of control | T/C (endpoint: mean survival time, dose: 6.25 mg/kg/injection, schedule: Q01DX001 (ip), vehicle: Klucel (hydroxypropylcellulose) (HPC)): 97 % of control | T/C (endpoint: mean survival time, dose: 12.5 mg/kg/injection, schedule: Q01DX001 (ip), vehicle: Klucel (hydroxypropylcellulose) (HPC)): 93 % of control

C=CCCCCCCCCC(=O)NCc1cccnc1
T/C [4]: 98 % of control | T/C [5]: 104 % of control | T/C [6]: 90 % of control

O=C1c2ccccc2C(=O)N1c1c2ccccc2cc2ccccc12
T/C [7]: 95 % of control | T/C [8]: 101 % of control | T/C [9]: 90 % of control

N#C/C(=C\c1cc(Br)cc(Br)c1O)c1ccc([N+](=O)[O-])cc1
T/C [7]: 103 % of control | T/C [8]: 96 % of control | T/C [9]: 94 % of control

COc1ccc(C(=O)C(O)c2ccccc2)cc1 (stereo unspecified)
T/C (endpoint: mean survival time, dose: 100.0 mg/kg/injection, schedule: Q04DX003 (ip), vehicle: other): 97 % of control | T/C (endpoint: mean survival time, dose: 200.0 mg/kg/injection, schedule: Q04DX003 (ip), vehicle: other): 92 % of control | T/C (endpoint: mean survival time, dose: 400.0 mg/kg/injection, schedule: Q04DX003 (ip), vehicle: other): 92 % of control

COC(COC(=O)N1CCN(C=O)CC1)C1=C(N2CC2)C(=O)C(C)=C(N2CC2)C1=O (stereo unspecified)
T/C (endpoint: median survival time, dose: 3.0 mg/kg/injection, schedule: Q01DX005 (ip), vehicle: saline): 168 % of control | T/C (endpoint: median survival time, dose: 3.6 mg/kg/injection, schedule: Q01DX005 (ip), vehicle: saline): 160 % of control | T/C (endpoint: median survival time, dose: 6.0 mg/kg/injection, schedule: Q01DX005 (ip), vehicle: saline): 190 % of control and 191 % of control | T/C (endpoint: median survival time, dose: 12.0 mg/kg/injection, schedule: Q01DX005 (ip), vehicle: saline): 111 % of control

OC1CCCCO1 (stereo unspecified)
T/C [4]: 100 % of control | T/C [5]: 103 % of control | T/C [6]: 103 % of control

O=C(OC1CC2CCC1C2Cl)c1ccc2ccccc2c1 (stereo unspecified)
T/C [1]: 93 % of control | T/C [7]: 91 % of control | T/C [2]: 89 % of control | T/C [8]: 93 % of control | T/C [14]: 95 % of control | T/C [9]: 95 % of control

CC(C(=O)c1ccccc1)C(c1ccccc1)N1CCCCC1 (stereo unspecified)
T/C [1]: 92 % of control | T/C [7]: 87 % of control | T/C [8]: 96 % of control | T/C [14]: 90 % of control | T/C [9]: 93 % of control

C[n+]1cccc(NC(=O)COc2ccc(Cl)c(Cl)c2)c1
T/C (endpoint: mean survival time, dose: 25.0 mg/kg/injection, schedule: Q04DX003 (ip), vehicle: saline with Tween-80): 106 % of control | T/C (endpoint: mean survival time, dose: 50.0 mg/kg/injection, schedule: Q04DX003 (ip), vehicle: saline with Tween-80): 104 % of control | T/C [4]: 97 % of control and 104 % of control

O=C(O)c1ccc2c(c1Cl)C(=O)c1ccccc1C2=O
T/C (endpoint: mean survival time, dose: 50.0 mg/kg/injection, schedule: Q01DX009 (ip), vehicle: saline with Tween-80): 100 % of control | T/C [7]: 103 % of control | T/C [8]: 100 % of control

O=C1OCC2CC=CCC12 (stereo unspecified)
T/C (endpoint: mean survival time, dose: 50.0 mg/kg/injection, schedule: Q01DX001 (ip), vehicle: carboxymethylcellulose (CMC)): 92 % of control | T/C (endpoint: mean survival time, dose: 100.0 mg/kg/injection, schedule: Q01DX001 (ip), vehicle: carboxymethylcellulose (CMC)): 100 % of control | T/C (endpoint: mean survival time, dose: 200.0 mg/kg/injection, schedule: Q01DX001 (ip), vehicle: carboxymethylcellulose (CMC)): 92 % of control | T/C (endpoint: mean survival time, dose: 400.0 mg/kg/injection, schedule: Q01DX001 (ip), vehicle: carboxymethylcellulose (CMC)): 97 % of control

COc1ccc(CCOS(=O)(=O)c2ccc(C)cc2)cc1
T/C [1]: 103 % of control | T/C [2]: 101 % of control | T/C [14]: 101 % of control

CCCCNP(=S)(NCCCC)NCCCC
T/C [12]: 94 % of control | T/C [3]: 94 % of control | T/C [13]: 98 % of control

COc1cc2c(c3ccccc13)CCCC2=O
T/C [7]: 95 % of control | T/C [8]: 92 % of control | T/C [9]: 97 % of control

O=C(Nc1ccc2ccccc2c1-c1c(NC(=O)c2ccccc2)ccc2ccccc12)c1ccccc1
T/C [1]: 91 % of control | T/C [14]: 91 % of control

C/C(=C\Cl)CN(C)C
T/C (endpoint: mean survival time, dose: 50.0 mg/kg/injection, schedule: Q01DX009 (ip), vehicle: acetone): 97 % of control | T/C (endpoint: mean survival time, dose: 100.0 mg/kg/injection, schedule: Q01DX009 (ip), vehicle: acetone): 103 % of control

Cc1cccc(C)c1NC(=O)c1cccc(Cl)c1
T/C [7]: 94 % of control | T/C [4]: 98 % of control | T/C [8]: 98 % of control | T/C [5]: 96 % of control | T/C [9]: 94 % of control | T/C [6]: 98 % of control

COc1ccc(-c2c(C(=O)NCCc3ccccc3)[nH]c(-c3ccccc3)c2-c2ccccc2)cc1
T/C [10]: 95 % of control | T/C [11]: 98 % of control

O=C([O-])CC[n+]1ccn(CCC(=O)O)c1
T/C (endpoint: mean survival time, dose: 100.0 mg/kg/injection, schedule: Q04DX003 (ip), vehicle: saline): 109 % of control | T/C (endpoint: mean survival time, dose: 200.0 mg/kg/injection, schedule: Q04DX003 (ip), vehicle: saline): 103 % of control | T/C (endpoint: mean survival time, dose: 400.0 mg/kg/injection, schedule: Q04DX003 (ip), vehicle: saline): 111 % of control

COC(=O)C(Br)C(Br)c1ccccc1 (stereo unspecified)
T/C [7]: 101 % of control | T/C [4]: 103 % of control | T/C [8]: 101 % of control | T/C [5]: 106 % of control | T/C [9]: 95 % of control | T/C [6]: 106 % of control

O=C(O)C1(C(=O)O)CC2(CCC2)C1
T/C (endpoint: mean survival time, dose: 100.0 mg/kg/injection, schedule: Q01DX001 (ip), vehicle: saline): 100 % of control | T/C (endpoint: mean survival time, dose: 200.0 mg/kg/injection, schedule: Q01DX001 (ip), vehicle: saline): 100 % of control | T/C (endpoint: mean survival time, dose: 400.0 mg/kg/injection, schedule: Q01DX001 (ip), vehicle: saline): 100 % of control

O=c1ccnc2cc[nH]n12
T/C (endpoint: median survival time, dose: 50.0 mg/kg/injection, schedule: Q01DX005 (ip), vehicle: saline): 104 % of control | T/C (endpoint: median survival time, dose: 100.0 mg/kg/injection, schedule: Q01DX005 (ip), vehicle: saline): 101 % of control | T/C (endpoint: median survival time, dose: 200.0 mg/kg/injection, schedule: Q01DX005 (ip), vehicle: saline): 101 % of control

O=C1C(=O)c2ccccc2C(O)=C1CC1=C(O)c2ccccc2C(=O)C1=O
T/C [4]: 103 % of control | T/C [5]: 101 % of control | T/C [6]: 106 % of control

O=C(O)c1c(Cl)ccc(F)c1Cl
T/C [12]: 105 % of control | T/C [3]: 105 % of control | T/C [13]: 94 % of control
